Source: ChEMBL document CHEMBL1128997, “Synthesis and antitumor activity of a new class of water soluble camptothecin derivatives” (Bioorg Med Chem Lett, 1996)

How the values were obtained:
[1] = molecular target: T1, DNA topoisomerase 1 (Homo sapiens, UniProt P11387); assay: Compound was tested in vitro for inhibition of topoisomerase I.
T1 sequence (P11387 whole entry): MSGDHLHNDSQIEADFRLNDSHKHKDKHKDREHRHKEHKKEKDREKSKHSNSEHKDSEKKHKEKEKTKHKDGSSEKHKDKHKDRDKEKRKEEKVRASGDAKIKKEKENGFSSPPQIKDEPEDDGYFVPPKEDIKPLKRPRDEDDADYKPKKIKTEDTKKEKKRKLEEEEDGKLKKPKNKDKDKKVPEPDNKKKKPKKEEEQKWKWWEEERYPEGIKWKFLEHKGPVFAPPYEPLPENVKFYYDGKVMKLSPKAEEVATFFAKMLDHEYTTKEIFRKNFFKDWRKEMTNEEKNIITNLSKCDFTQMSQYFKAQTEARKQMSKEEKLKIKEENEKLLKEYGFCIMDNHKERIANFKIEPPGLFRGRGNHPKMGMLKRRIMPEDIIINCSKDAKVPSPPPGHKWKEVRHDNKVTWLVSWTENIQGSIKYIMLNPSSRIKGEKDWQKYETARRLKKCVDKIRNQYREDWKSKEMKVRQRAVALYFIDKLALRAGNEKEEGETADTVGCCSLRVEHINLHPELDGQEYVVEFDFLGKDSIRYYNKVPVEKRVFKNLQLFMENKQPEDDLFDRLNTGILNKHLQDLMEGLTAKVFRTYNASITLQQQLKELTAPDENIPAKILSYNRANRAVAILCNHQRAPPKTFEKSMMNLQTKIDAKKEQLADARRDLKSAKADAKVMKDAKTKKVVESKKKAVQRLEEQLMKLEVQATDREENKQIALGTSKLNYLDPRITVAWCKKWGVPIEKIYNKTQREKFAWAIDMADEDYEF

[2] = tested on: L1210; assay: Compound was tested in vitro for cytotoxicity against L1210 murine leukemia cells.; type: functional, cell-based; settings: Mus musculus
[3] = tested on: Mus musculus; assay: Activity against L1210 ascitic leukemia expressed as ratio of the median survival time of treated mice to that of untreated control X 100 after ip administration at a optimal dose of 10 mg/Kg; type: functional
[4] = tested on: Mus musculus; assay: Activity against L1210 ascitic leukemia expressed as ratio of the median survival time of treated mice to that of untreated control X 100 after iv administration at a optimal dose of 15 mg/Kg; type: functional
[5] = tested on: Mus musculus; assay: Activity against L1210 ascitic leukemia expressed as ratio of the median survival time of treated mice to that of untreated control X 100 after ip administration at a optimal dose of 15 mg/Kg; type: functional
[6] = tested on: Mus musculus; assay: Activity against L1210 ascitic leukemia expressed as ratio of the median survival time of treated mice to that of untreated control X 100 after iv administration at a optimal dose of 20 mg/Kg; type: functional
[7] = tested on: Mus musculus; assay: Activity against L1210 ascitic leukemia expressed as ratio of the median survival time of treated mice to that of untreated control X 100 after iv administration at a optimal dose of 2.5 mg/Kg; type: functional
[8] = tested on: Mus musculus; assay: Activity against L1210 ascitic leukemia expressed as ratio of the median survival time of treated mice to that of untreated control X 100 after ip administration at a optimal dose of 1.5 mg/Kg; type: functional

Row | Structure (SMILES) | IC50 [1] | IC50 [2] | T/C [3] | T/C [4] | T/C [5] | T/C [6] | T/C [7] | T/C [8]
1 | CCc1c2c(nc3cccc(/N=C/N(C)C)c13)-c1cc3c(c(=O)n1C2)COC(=O)[C@]3(O)CC | 3600 nM | 52.4 nM | – | – | – | – | – | –
2 | CC[C@@]1(O)C(=O)OCc2c1cc1n(c2=O)Cc2cc3c(/N=C/N4CCOCC4)cccc3nc2-1 | 69000 nM | 125 nM | – | – | – | – | – | –
3 | CC[C@@]1(O)C(=O)OCc2c1cc1n(c2=O)Cc2cc3c(N/C=N/C)cccc3nc2-1.Cl | 6600 nM | 52 nM | 169% | 167% | – | – | – | –
4 | CC[C@@]1(O)C(=O)OCc2c1cc1n(c2=O)Cc2cc3c(NC=N)cccc3nc2-1.Cl | 20400 nM | 92.5 nM | – | 143% | 219% | – | – | –
5 | CC[C@@]1(O)C(=O)OCc2c1cc1n(c2=O)Cc2cc3c(/N=C/N(C)C)cccc3nc2-1.Cl | 19200 nM | 108 nM | – | – | 175% | 200% | – | –
6 | CC[C@@]1(O)C(=O)OCc2c1cc1n(c2=O)Cc2cc3c(/N=C/N(C)c4ccccc4)cccc3nc2-1 | 2200 nM | 28.1 nM | – | – | – | – | – | –
7 | CC[C@@]1(O)C(=O)OCc2c1cc1n(c2=O)Cc2cc3cc(/N=C/N(C)C)ccc3nc2-1 | 42000 nM | 94.5 nM | – | – | – | – | – | –
8 | CC[C@@]1(O)C(=O)OCc2c1cc1n(c2=O)Cc2cc3c(/N=C(\C)N(C)C)cccc3nc2-1 | 3500 nM | 689 nM | – | – | – | – | – | –
9 | CC[C@@]1(O)C(=O)OCc2c1cc1n(c2=O)Cc2cc3c(N)cccc3nc2-1 [9-AMINOCAMPTOTHECIN] | 4200 nM | 12.7 nM | – | – | – | – | 138% | 163%
